Experiments:
[1] = test system: CYP7A; assay: CYP7A assay in liver of orally dosed mice; type: in vivo, C57BL/6J mouse; conditions: C57BL/6J mice (n=6), single oral administration, liver taken after 8 h; dose not given
[2] = Plasma lipid change experiment in mice; type: in vivo, C57BL/6J mouse; conditions: 14 days, C57BL/6J mice (n=6), blood 6 h after last dose
[3] = molecular target: T1, LXRα ligand-binding domain [LXRα 리간드-결합 도메인] (GST-LXRα-LBD) (Homo sapiens, UniProt Q13133); assay: Fluorescence polarization assay (rhodamine-labelled LXXLL peptide recruitment to GST-LXRα-LBD); type: biochemical; conditions: 10 nM rhodamine-labelled peptide, 200 nM GST-LXRα-LBD, overnight (Fig. 2)
T1 construct: LXRα 리간드-결합 도메인을 글루타치온 S-트랜스퍼라제(GST)의 C-말단에 융합시키고; made in house; host or cells: E. coli
T1 sequence (Q13133 209-447 limits assumed): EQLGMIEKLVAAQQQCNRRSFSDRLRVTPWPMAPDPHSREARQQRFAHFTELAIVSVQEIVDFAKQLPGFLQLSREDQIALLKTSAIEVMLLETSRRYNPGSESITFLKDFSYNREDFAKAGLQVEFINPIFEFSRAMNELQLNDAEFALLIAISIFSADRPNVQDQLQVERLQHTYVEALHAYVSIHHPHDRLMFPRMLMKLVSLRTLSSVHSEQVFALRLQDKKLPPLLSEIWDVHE

[4] = molecular target: T2, LXRα (pGAL-hLXRα-LBD) (Homo sapiens, UniProt Q13133); assay: Transient transfection assay (luciferase reporter) in HEK293 / NIH3T3 cells; type: cell-based; conditions: increasing amounts of compound, without RXRα expression plasmid (Fig. 1)
T2 construct: 수용체 발현 벡터(pGAL-hLXRα-LBD); expressed in transfected cells; host or cells: HEK293 or NIH3T3 cells
T2 sequence (Q13133 209-447 limits assumed): T1 sequence (Q13133 209-447 limits assumed)

| Compound | increase in CYP7A activity in liver [1] [%] | increase in plasma HDL cholesterol ([2]; 30 mg/kg oral) [%] | increase in plasma HDL cholesterol ([2]; 100 mg/kg oral) [%] | fluorescence polarization activity (coactivator peptide recruitment) [3] | luciferase activity (LXRα-mediated transcription) [4] |
| --- | --- | --- | --- | --- | --- |
| CC(C)c1cc(/C=C(\C#N)S(=O)(=O)c2ccccc2)cn1-c1ccccc1C(F)(F)F [#189, (E)-2-페닐설포닐-3-[1-(2-트리플루오로메틸페닐)-5-이소프로필피롤-3-일]아크릴로니트릴] | 91 | 18 | 41 | – | – |
| O=S(=O)(c1ccccc1)N(CC(F)(F)F)c1ccc(C(O)(C(F)(F)F)C(F)(F)F)cc1 [T0901317, reference compound] | – | – | – | 가장 높은 활성을 나타내었고 | 용량 의존적으로 루시퍼라제 활성이 증가하였다 |
| Cc1c(/C=C(\C#N)S(=O)(=O)c2ccccc2)cc(C(C)C)n1-c1ccccc1C(F)(F)F [#44, (E)-2-페닐설포닐-3-[1-(2-트리플루오로메틸페닐)-2-메틸-5-이소프로필피롤-3-일]아크릴로니트릴] | – | – | – | – | 용량 의존적으로 루시퍼라제 활성이 증가하였다 |
| COC(=O)c1cccc(S(=O)(=O)/C(C#N)=C/c2cc(C(C)C)n(-c3ccccc3C(F)(F)F)c2C)c1 [#182, (E)-2-(3-메톡시카보닐페닐)설포닐-3-[1-(2-트리플루오로메틸페닐)-2-메틸-5-이소프로필피롤-3-일]아크릴로니트릴] | – | – | – | – | 용량 의존적으로 루시퍼라제 활성이 증가하였다 |
| CC(C)CC[C@@H](O)[C@@H](C)[C@H]1CC[C@H]2[C@@H]3CC=C4C[C@@H](O)CC[C@]4(C)[C@H]3CC[C@]12C [22(R)-하이드록시콜레스테롤, reference compound] | – | – | – | 형광의 증가를 나타내었다 | 용량 의존적으로 루시퍼라제 활성이 증가하였다 |

Source: patent publication KR20050073110A, “간 x 수용체의 항진제” (주식회사 엘지생명과학, priority 2004, dated 2005)
